Entries after “also recorded” stand apart in the source; their conditions may differ.
Experiments:
[1] = test system: colon cancer CN1572P5 PDX; test: Tumor growth of colon cancer CN1572P5 PDX in non-HLA matched Hu-CD34 NSG mice; type: in vivo, mouse; conditions: tumor growth curves over 21 days; 5-FU i.v. about 20 mg/kg Q7dx2; Avastin i.p. about 10 mg/kg twice a week, 5 doses
Description: To test whether the subject Hu-CD34 NSG™ mice with non-HLA matched PDX can be used to evaluate drug efficacy against the PDX, using clinically relevant standard-of-care (SOC) treatments, tumor growth curves over 21 days were obtained for a negative control/vehicle group, and two treatment groups using 5-FU and Avastin, respectively, against the colon cancer CN1572P5 PDX. Specifically, 5-FU was administered i.v. at a dose of about 20 mg/kg body weight, Q7d×2 (every 7 days, 2 total doses). Avastin was administered i.p. at a dose of about 10 mg/kg body weight, twice a week, 5 total doses. Vehicle (D5W) was administered i.v., Q7d×3.

[2] = test system: CD45+CD8+ infiltrating T lymphocytes in PDX tumor samples; test: Immuno-staining of treated PDX tumor samples for CD45+CD8+ infiltrating T lymphocytes; type: in vivo, mouse; conditions: compared to chemotherapy alone
Description: In a similar experiment, immuno-staining was conducted on PDX tumor samples treated by chemotherapy alone, anti-PD1 agent Keytruda, and anti-CTLA4 agent ipilimumab, for the presence of CD45^+CD8^+ infiltrating T lymphocytes.

[3] = test system: breast cancer BR1126 PDX; test: Tumor growth of PD-L1+ TNBC BR1126 breast cancer PDX in non-HLA matched Hu-CD34 NSG mice; type: in vivo, mouse; conditions: for tumor growth compared to the vehicle control: growth curves over 21 days, cisplatin i.v. about 2 mg/kg Q7dx3, Keytruda i.p. about 5-10 mg/kg Q5dx4
Description: Specifically, humanized NSG mice were engrafted with 5×10^6 of non-HLA matched PD-L1-positive breast cancer cell line BR1126 cells per mouse via s.c. inoculation. This can be done with the presence of matrigel. About 56.9% of the BR1126 cells expressed PD-L1.
(§1) Tumor growth curves over 21 days were obtained for a negative control/vehicle group, and two treatment groups using cisplatin and pembrolizumab (Keytruda), respectively, against the BR1126 PDX. Specifically, cisplatin was administered i.v. at a dose of about 2 mg/kg body weight, Q7d×3 (every 7 days, 3 total doses). Pembrolizumab (Keytruda) was administered i.p. at a dose of about 5-10 mg/kg body weight, Q5d×4 (every 5 days, 4 total doses). Vehicle (Saline) was administered i.p., Q5d×4.
Tumors from the Keytruda-treated mice were collected at the end of the study and examined for lymphocyte infiltration.

[4] = test system: breast cancer cell line MDA-MB-231; test: Tumor growth of PD-L1+ MDA-MB-231 breast cancer model in non-HLA matched Hu-CD34 NSG mice; type: in vivo, mouse; conditions: for tumor growth of MDA-MB-231 tumors: growth curves over 21 days, cisplatin i.v. about 2 mg/kg Q7dx2
Description: First, to determine if the checkpoint inhibitor pembrolizumab (Keytruda) is efficacious in the subject non-HLA matched PDX humanized NSG model, a PDX huNSG model was established according to the methods of the invention. […] This cell line expresses very high levels of PD-L1 on the tumor cell surface that can bind to PD-1 on T-cells and induce anergy—about 94.3% of the MDA-MB-231 cells expressed PD-L1. The tumor-engrafted humanized NSG mice were then treated either with vehicle, Cisplatin, or Prembrolizumab (Keytruda).
as §1, with “MDA-MB-231” for “BR1126”, “Q7d×2” for “Q7d×3”, “2” for “3”
At the termination of the growth study, peripheral blood of the experimental mice were collected and assayed for human CD19^+ B cells and human CD4^+ and CD8^+ T-cells.
Tumors were also collected and assayed for human CD4^+ and CD8^+ infiltrating T-cells.

[5] = test system: lung cancer LG1306 PDX; test: Tumor growth of PD-L1+ LG1306 lung cancer PDX in non-HLA matched Hu-CD34 NSG mice; type: in vivo, mouse
Description: Specifically, humanized NSG mice were engrafted with 5×10^6 of non-HLA matched PD-L1-positive PDX lung cancer cell line LG1306 per mouse. About 89.1% of the LG1306 cells expressed PD-L1.
Tumor growth curves over 24 days were obtained for a negative control/vehicle group, and two treatment groups using pembrolizumab (Keytruda), with or without the anti-mitotic chemotherapeutic agent Decotaxol, against the LG1306 PDX. Specifically, Decetaxol, when present, was administered i.v. at a dose of about 10 mg/kg body weight, Q7d×4 (every 7 days, 4 total doses). Pembrolizumab (Keytruda) was administered i.p. at a dose of about 5 mg/kg body weight, Q5d×6 (every 5 days, 6 total doses). Vehicle (Saline) was administered i.p., Q5d×6.

[6] = test system: non-small-cell lung cancer, melanoma, and renal-cell cancer; conditions: 296 patients; cited from earlier work
[7] = Keytruda i.p. about 5-10 mg/kg Q5dx4

For “Avastin: clinically relevant standard-of-care (SOC) anti-cancer drug”, the “efficacy against the non-HLA matched colon cancer PDX (tumor volume)” value [1] was “effective”.

With `O=c1[nH]cc(F)c(=O)[nH]1` [5-FU] the “efficacy against the non-HLA matched colon cancer PDX (tumor volume)” value [1] was “effective”.

With “Keytruda: anti-PD-1 antibody drug; highly selective, humanized IgG4-kappa monoclonal antibody against PD-1” the “presence of CD45+CD8+ infiltrating T lymphocytes in PDX tumor samples” value [2] was “strong presence”, the “tumor growth compared to the vehicle control” value [3] was “significantly reduced tumor growth” and the “tumor lymphocyte infiltration compared to the vehicle treated mice” value ([3]; tumors collected at the end of the study) was “did not increase tumor infiltration”. For the same molecule, the “time after start of treatment to significant tumor growth delay” value [4, 7] was at most 2 weeks, the “human T and B cells in peripheral blood and infiltrating T cells (TILs) in tumors versus other treatment groups” value ([4]; at termination of the growth study) was “absence of additional TILs” and the “tumor growth of MDA-MB-231 tumors” value [4, 7] was “delayed tumor growth significantly”. For the same molecule, the mice not responding ([5]; Keytruda alone) was “one of 10”, the “tumor growth of LG1306 PDX compared to vehicle-treated controls” value ([5]; growth curves over 24 days, Keytruda i.p. about 5 mg/kg Q5dx6, Docetaxel i.v. about 10 mg/kg Q7dx4, all mice) was “reduced growth; also recorded: effective” and the “tumor growth, non-responding mouse taken out of the calculations” value ([5]; one Keytruda non-responder excluded) was “significant decrease in tumor growth”.

For “nivolumab: fully human IgG4 monoclonal antibody against PD-1”, the clinical response [6] is given as “complete or partial responses”.

For `N.N.[Cl][Pt][Cl]` [Cisplatin, cisplatin], the “tumor growth compared to the vehicle control” value [3] was “significantly reduced tumor growth” and the “tumor growth of MDA-MB-231 tumors” value [4, 7] was “only marginally reduced the growth rate”.

In the case of “ipilimumab: anti-CTLA4 agent; FDA-approved CTLA-4 inhibitor for treating melanoma”, the “presence of CD45+CD8+ infiltrating T lymphocytes in PDX tumor samples” value [2] is reported as “strong presence”.
